Measurements published in US20210030802A1, “GLUCOCORTICOID-RESISTANT LEUKOCYTES AND THEIR USE IN THE TREATMENT OF CANCERS AND VIRUSES” (CONSTANT BIOTECHNOLOGY, LLC, priority 2018, published 2021).

T1: HSD11B2 (Homo sapiens, UniProt P80365)
T1 construct: expressed in transfected cells
T1 sequence (P80365 1-405): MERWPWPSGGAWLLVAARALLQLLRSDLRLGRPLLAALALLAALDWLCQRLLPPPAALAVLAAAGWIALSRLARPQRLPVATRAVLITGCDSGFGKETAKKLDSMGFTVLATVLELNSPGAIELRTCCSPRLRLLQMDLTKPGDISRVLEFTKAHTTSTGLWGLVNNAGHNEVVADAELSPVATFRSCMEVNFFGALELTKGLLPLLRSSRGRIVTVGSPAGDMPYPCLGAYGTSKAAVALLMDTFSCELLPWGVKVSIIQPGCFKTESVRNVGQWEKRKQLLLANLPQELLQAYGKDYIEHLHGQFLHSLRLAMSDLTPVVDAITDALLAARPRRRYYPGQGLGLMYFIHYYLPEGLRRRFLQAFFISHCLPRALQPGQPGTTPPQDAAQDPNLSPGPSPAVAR

B1: wtExon1-none: modified HSD11B2 gene wherein approximately exon 1 was not codon modified but remained wild type (SEQ ID No.: 31) (nucleic acid)
DNA: CCCCTCACTCGGCGCGATCTAGATCTCGAATCGCCAGCCCGCTGGGCCGCCATGGAGCGCTGGCCTTGGCCGTCGGGCGGCGCCTGGCTGCTCGTGGCTGCCCGCGCGCTGCTGCAGCTGCTGCGCTCAGACCTGCGTCTGGGCCGCCCGCTGCTGGCGGCGCTGGCGCTGCTGGCCGCGCTCGACTGGCTGTGCCAGCGCCTGCTGCCCCCGCCGGCCGCACTCGCCGTGCTGGCCGCCGCCGGCTGGATCGCGTTGTCCCGCCTGGCGCGCCCGCAGCGCCTGCCGGTGGCCACTCGCGCGGTGCTCATCACCGGTTGTGACTCTGGTTTTGGTAAGGAGACGGCTAAGAAACTGGACTCCATGGGTTTCACGGTGCTGGCTACCGTATTGGAGTTGAACAGCCCTGGTGCTATCGAGCTGCGTACCTGCTGCTCCCCTCGTCTAAGGCTGCTGCAGATGGACCTGACCAAACCAGGAGACATTAGCCGTGTGCTAGAGTTCACCAAGGCTCACACCACCAGCACCGGTCTGTGGGGTCTCGTCAACAACGCAGGTCACAATGAAGTAGTTGCTGATGCAGAGCTGTCTCCAGTGGCTACTTTCCGTAGCTGCATGGAGGTGAATTTCTTTGGTGCACTCGAGCTGACCAAGGGTCTCCTGCCTCTGCTGCGTAGCTCAAGGGGTCGTATCGTGACTGTGGGAAGCCCAGCAGGAGACATGCCATATCCATGCTTGGGAGCTTATGGAACCTCCAAAGCAGCTGTGGCACTACTCATGGACACATTCAGCTGTGAACTCCTTCCTTGGGGAGTCAAGGTCAGCATCATCCAGCCTGGTTGCTTCAAGACAGAGTCAGTGAGAAACGTGGGTCAGTGGGAAAAGCGTAAGCAATTGCTGCTGGCTAACCTGCCTCAAGAGCTGCTGCAGGCTTACGGTAAGGACTACATCGAGCACTTGCATGGACAGTTCCTGCACTCGCTACGTCTGGCTATGTCCGACCTCACCCCAGTTGTAGATGCTATCACAGATGCACTGCTGGCAGCTAGGCCTCGTCGTCGTTATTACCCTGGTCAGGGTCTGGGACTCATGTACTTCATCCACTACTACCTGCCTGAAGGTCTGAGGCGTCGTTTCCTGCAGGCTTTCTTCATCAGTCACTGTCTGCCTCGAGCACTGCAGCCTGGTCAGCCTGGTACTACCCCACCACAGGACGCAGCTCAGGACCCAAACCTGAGCCCTGGTCCTTCCCCAGCAGTGGCTAGGTGACCTGAAAAAGGGGTACCTTTAAGACCAATGACTTACAAGGCAGCTGTAG
modifications: wtExon1-none

Key:
RS4;11 cells = assay: Survival of lenti-transduced cells in presence of steroids with or without HSD inhibitor (CELLTITER-GLO); assay type: cell-based, human; details: HSD11B2-transduced RS4;11 cells; for Effect of HSD inhibitor on steroid protection of transduced cells: DEX or PRED, carbenoxolone 1 μM and 10 μM; for Reversal of protection against dexamethasone by HSD inhibitor / Reversal of protection against prednisolone by HSD inhibitor: posaconazole 1 μM, carbenoxolone 10 μM or 1 μM
HSD11B2 = biological target: T1, HSD11B2; assay: Effect of HSD inhibitor on steroid degradation by HSD11B2-transduced stimulated leukocytes; assay type: cell-based; details: posaconazole 7 μM
HSD11B1 = biological target: T2, HSD11B1 (Homo sapiens, UniProt P28845); assay: Effect of HSD inhibitor on steroid degradation by HSD11B1-transduced stimulated leukocytes; assay type: cell-based; details: posaconazole 7 μM
T2 construct: expressed in transfected cells
T2 sequence (P28845 whole entry): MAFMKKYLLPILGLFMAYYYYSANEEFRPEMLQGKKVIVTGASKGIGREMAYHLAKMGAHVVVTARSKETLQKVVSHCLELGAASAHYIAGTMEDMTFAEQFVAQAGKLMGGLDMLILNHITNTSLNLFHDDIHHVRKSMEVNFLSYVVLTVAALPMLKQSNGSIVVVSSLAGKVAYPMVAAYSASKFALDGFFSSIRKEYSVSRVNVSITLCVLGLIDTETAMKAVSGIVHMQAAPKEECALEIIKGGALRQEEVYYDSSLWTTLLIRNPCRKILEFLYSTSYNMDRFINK

stimulated leukocytes [1] = assay: Steroid degradation by lentivirally transduced stimulated leukocytes, steroid detected by ELISA; assay type: cell-based, human
stimulated leukocytes [2] = assay: Conversion of cortisol to cortisone by transduced stimulated leukocytes, UHPLC-Mass Spectrometry; assay type: cell-based, human
Experimental: Human peripheral blood leukocytes (HPBL) were prepared by density gradient centrifugation of anti-coagulated human blood (Cincinnati Children's Hospital Cell Processing Core). HPBL were stimulated with CYTOSTIM™, inteleukin 2 (IL-2) in TEXMACS™ media (all reagents, Miltenyi Biotech) according to manufacturer's instructions for three days. […] After stimulation, the entire population of stimulated cells (“stimulated leukocytes”) were cryopreserved in cell freezing media which contained dimethyl sulfoxide (DMSO). Prior to experiments, cryopreserved stimulated leukocytes were thawed, washed twice and cultured in TEXMACS™ media supplemented with 10% (v/v) heat inactivated fetal bovine serum (HI-FBS, VWR). After an overnight incubation, typical cell viability post-thaw was greater than 95% as determined by Trypan blue dye exclusion. Post-thaw, cells were cultured overnight prior to transduction with lentivirus. […]
Viral copy number (VCN) was assessed on cell pellets by real-time polymerase chain reaction (RT-PCR) by extracting the genomic DNA and using primers and probes for the R-U5 region of the lentiviral vector. VCN was determined using a cGMP testing protocol conducted by the Translational Trials Support & Development Laboratory of Cincinnati Children's Hospital. […] To permit direct comparison of the intrinsic activity of each enzyme construct—independent of any variability of target cell transduction or number of transduced cells in an experimental arm—VCN values were combined with the number of live cells measured at the end of incubation to adjust data to reflect a uniform level of cells carrying the transgene.
Cortisol and cortisone levels in supernatants were quantified by the Michigan Regional Comprehensive Metabolomics Resource Core at the University of Michigan, Ann Arbor, Mich., in a delta 4 (D4-) steroid hormone assay using combined ultra-high pressure liquid chromatography and triple quadrapole (UHPLC-QQQ) mass spectrometry. […]

| Molecule | Effect of HSD inhibitor on steroid protection of transduced cells (RS4;11 cells) | Effect of HSD inhibitor on steroid protection of transduced cells (RS4;11 cells; listed as Carbenoxolone) | Reversal of protection against dexamethasone by HSD inhibitor (RS4;11 cells) | Reversal of protection against prednisolone by HSD inhibitor (RS4;11 cells) | Inhibition of steroid degradation by HSD11B2 genes (HSD11B2, B2-Tag and wtExon1-none) (HSD11B2) | Inhibition of HSD11B1 degradation of steroids (HSD11B1) | Inhibition of HSD11B1 depletion (conversion) of prednisolone and dexamethasone (HSD11B1) | Cortisol levels at end of assay (stimulated leukocytes [1]; cortisol 100 nM, ELISA) | Degradation of cortisol, prednisolone and dexamethasone (stimulated leukocytes [1]; steroid 100 nM, 18 to 24 hours, adjusted for number of transgene bearing cells) | Rate of conversion of prednisolone or dexamethasone (stimulated leukocytes [1]; transduced leukocytes) | Generation of cortisone from cortisol (stimulated leukocytes [2]; UHPLC-Mass Spectrometry) | Rate of cortisol depletion indirectly calculated from cortisone production (stimulated leukocytes [2]; assuming no inter-conversion) | Rate of conversion of cortisol to cortisone (stimulated leukocytes [2]; transduced leukocytes) |
| --- | --- | --- | --- | --- | --- | --- | --- | --- | --- | --- | --- | --- | --- |
| CC1(C)[C@@H](OC(=O)CCC(=O)O)CC[C@]2(C)[C@H]3C(=O)C=C4[C@@H]5C[C@@](C)(C(=O)O)CC[C@]5(C)CC[C@@]4(C)[C@]3(C)CC[C@@H]12 [carbenoxolone] | reduced or eliminated | showed a dose response effect | Protection was reversed | Protection was reversed | – | – | – | – | – | – | – | – | – |
| CC[C@@H]([C@H](C)O)n1ncn(-c2ccc(N3CCN(c4ccc(OC[C@@H]5CO[C@@](Cn6cncn6)(c6ccc(F)cc6F)C5)cc4)CC3)cc2)c1=O [posaconazole] | reduced or eliminated | – | Protection was reversed | Protection was reversed | inhibited | also inhibited | strongly inhibited | – | – | – | – | – | – |
| B1 | – | – | – | – | – | – | – | below the limit of quantitation | degraded the steroids | at least 2000 pg/hour/10^5 of genetically modified leukocytes | generated cortisone | about 1,014 pg/hr/10e5 copies of the transgene | 800-1200 pg/hour/10^5 of genetically modified leukocytes |
